Measurements published in ChEMBL document CHEMBL3301546, “MMV Malaria Box yeast growth screening”.

What was measured:
Format in all cases: functional
Saccharomyces cerevisiae [1] = test: (§1) MMV: Growth assays were conducted using the prototrophic S. cerevisiae strain JHY222. Each MMV compound (0.1 mM) was tested in rich media containing dextrose as a carbon source (Yeast Extract, Peptone, Dextrose; YPD). The growth rate in the presence of each MMV compound was calculated as follows: (i) the first 10 OD readings were averaged and subtracted from all OD readings of the corresponding curve to set the baseline of the growth curve to zero, and (ii) the area under the curve (AUC) was then calculated as the sum of all OD readings. […] A relative growth value was calculated as follows: AUC(DRUG) - AUC(DMSO)/AUC(DMSO); where AUC(DMSO) represents growth measured in a DMSO control well that was on the same microtiter plate of the drug-treated culture.
Saccharomyces cerevisiae [2] = test: as §1, with “minimal” for “rich”, “ethanol and glycerol” for “dextrose”, “as” for “as a”, “sources” for “source”, “Nitrogen Base, Ethanol, Glycerol; YNBEG).” for “Extract, Peptone, Dextrose; YPD).”
Saccharomyces cerevisiae [3] = test: as §1, with “minimal” for “rich”, “Nitrogen Base,” for “Extract, Peptone,”, “YNBD).” for “YPD).”

Row | Structure (SMILES) | Relative Growth (Saccharomyces cerevisiae [1]) | Relative Growth (Saccharomyces cerevisiae [2]) | Relative Growth (Saccharomyces cerevisiae [3])
1 | COc1ccc2c(c1OC)C(=O)N1c3ccccc3N=C(c3ccc(C)cc3)CC21 (configuration not stated) | -0.0173 | -1.0982 | -1.0612
2 | Cl.OC(CNCc1ccccc1)Cn1c2ccccc2c2ccccc21 (configuration not stated) | -0.0131 | 0.03 | 0.0554
3 | O=C(Nc1ccc(N2CCCCC2)c(Cl)c1)c1ccc(Br)o1 | -0.0318 | -0.1511 | -0.1788
4 | O=C(Nc1ccc(-c2nc3ccccc3[nH]2)cc1)c1ccc(Cl)c(Cl)c1 | 0.0053 | 0.0462 | 0.027
5 | CCCCCCc1cc(O)c2c3c(c(=O)oc2c1)CCC(C)C3 (configuration not stated) | -0.0517 | -0.0677 | -0.0738
6 | COc1ccc(CN2CCCC(C(=O)c3ccc(C(F)(F)F)cc3)C2)c(O)c1 (configuration not stated) | -0.2476 | -0.9168 | -0.4404
7 | CC1CCN(Cc2c(O)ccc3cc(-c4nc5ccccc5s4)c(=O)oc23)CC1 | -0.0068 | -0.3243 | -0.0399
8 | Cl.N=c1n(CCN2CCCCC2)c2ccccc2n1CC(O)c1cccc(Br)c1 (configuration not stated) | -0.0788 | -0.5142 | -0.2329
9 | Nc1ccc(-c2nc3cc(Cc4ccc5[nH]c(-c6ccc(N)cc6)nc5c4)ccc3[nH]2)cc1 | -0.9832 | -0.1364 | -0.0312
10 | O=C(Nc1ccc(CN2CCOCC2)cc1)c1ccc(-c2cc(Cl)ccc2Cl)o1 | 0.0021 | -0.173 | 0.0214
11 | COc1cc(OC)c(N(C)C(=O)c2cc3c(s2)-c2ccccc2S(=O)(=O)C3)cc1Cl | -0.2124 | -0.2428 | -0.1342
12 | CC(C)(C)c1ccc2c(c1)CN(Cc1ccc(Cl)cc1)CO2 | -0.9993 | -0.1101 | -0.1149
13 | O=C(NC1CCN(Cc2ccccc2)CC1)c1cc(-c2cccnc2)nc2ccc(Cl)cc12 | -0.0203 | 0.017 | 0.0617
14 | Oc1ccccc1CN1CCC2(CCCN(Cc3ccccc3F)C2)C1 (configuration not stated) | -0.0746 | -0.309 | -0.0494
15 | COc1ccc(-c2nc(N3CCN(C(=O)C4CCCCC4)CC3)c3c4c(sc3n2)CCCC4)cc1 | -0.0342 | -0.067 | 0.0845
16 | COc1ccc(C2=C(c3ccc(OC)cc3)C3(c4ccccc4)C(=O)C2(c2ccccc2)C2C(=O)N(c4ccc(C)cc4)C(=O)C23)cc1 (configuration not stated) | 0.0057 | -0.0687 | -0.018
17 | Cc1[nH]c(-c2ccc(F)cc2)cc1C(=O)NC1CCN(Cc2ccccc2)CC1 | 0.0962 | 0.2181 | 0.023
18 | CCOC(=O)c1cnc2ccc(Cl)cc2c1NCCCN(C)C | 0.0203 | -0.0264 | 0.0022
19 | C[n+]1c2ccccc2nc2ccc(NCCO)cc21 | -0.1972 | -0.0436 | 0.0053
20 | CCOC(=O)C1=C(c2ccccc2)N=c2sc(=Cc3cc(C)n(-c4ccc(F)cc4)c3C)c(=O)n2C1c1cccc(OC)c1OC (configuration not stated) | -0.0436 | 0.1067 | 0.0967
21 | C=C(C)CCC(C)N1CCC(N2CCC(C(=O)NCCc3ccccc3)CC2)CC1 (configuration not stated) | -0.0567 | -0.0755 | 0.0261
22 | CCC(c1ccccc1)c1nn2c(-c3cccs3)nnc2s1 (configuration not stated) | -0.0182 | 0.1287 | 0.0181
23 | CCN1CCN(c2cc(C)c3cc(NC(=O)c4ccc(OC)c(OC)c4)ccc3n2)CC1 | -0.0203 | -0.0282 | -0.0518
24 | CSc1ccccc1C(=O)Nc1nc(-c2ccccn2)cs1 | -0.0643 | -0.2282 | -0.0928
25 | CCN(CC)CCCNc1ccnc2cc3ccccc3cc12 | -0.9889 | 0.1561 | 0.0381
26 | CCOC(=O)c1c(C)n(-c2ccccc2)c2ccc(OC(=O)c3cc(OC)c(OC)c(OC)c3)cc12 | -0.0253 | -0.2171 | -0.0133
27 | CN1CCN(c2nc(Nc3ccc(O)cc3)nc3ccccc23)CC1.Cl | -0.0029 | -0.0432 | -0.0206

Row | Structure (SMILES) | Relative Growth (Saccharomyces cerevisiae [1]) | Relative Growth (Saccharomyces cerevisiae [2]) | Relative Growth (Saccharomyces cerevisiae [3])
28 | Cc1cc(C)c2nc(N3CCC(C(=O)NCCCN4CCC(N5CCCCC5)CC4)CC3)sc2c1 | -0.0409 | -0.0414 | -0.0696
29 | CCN1CCN(c2c(C(=O)c3ccccc3)cnc3cc(OC)c(OC)cc23)CC1 | -0.0459 | -0.2869 | 0.0169
30 | CN(C)CCCNCc1ccc(-c2ccc(F)c(Cl)c2)o1.Cl | -0.0396 | 0.0645 | 0.0576
31 | c1ccc(/C2=N/c3ccccc3/N=C(/c3ccccc3)c3ccccc32)cc1 | -0.0437 | -0.1082 | -0.0429
32 | CCOc1ccc(-n2cc(-c3ccccc3)c3c(SCc4cc(C)ccc4C)ncnc32)cc1 | -0.0534 | -0.2113 | -0.0883
33 | CCc1ccc(CNCC(O)c2ccccc2)cc1.Cl (configuration not stated) | -0.1772 | -0.0955 | -0.0182
34 | Oc1c(C(Nc2ccccn2)c2cccc(Oc3ccccc3)c2)ccc2cccnc12 (configuration not stated) | -0.9969 | -0.1371 | 0.0038
35 | Cc1ccc(F)cc1NC(=O)c1cc(Cl)ccc1Nc1ccccc1 | -0.0355 | 0.1227 | -0.0972
36 | Cc1cc(Nc2cccc(F)c2)nc(NCc2ccccc2)n1 | -0.0448 | -0.2557 | 0.0258
37 | Cl.Oc1ccccc1CNCC12CC3CC(CC(C3)C1)C2 | -0.0154 | 0.0858 | 0.0701
38 | OC1CCCCC1C1(NC(=S)Nc2ccccc2)CCCCC1 (configuration not stated) | 0.0255 | 0.0032 | -0.1203
39 | O=C(NC1CCN(Cc2ccccc2)CC1)c1cc2nc(-c3ccc(Cl)s3)cc(C(F)(F)F)n2n1 | 0.0199 | -0.0027 | 0.0049
40 | O=C(Nc1ccc(F)c(Cl)c1)Nc1ccc(Cl)c(Cl)c1 | -0.0686 | -0.9478 | 0.0832
41 | Cc1ccc(-c2cc3nc4c(c(O)n3n2)CCCC4)cc1 | -0.3245 | -1.0646 | -1.0172
42 | O=C(CSc1ccc2nnc(-c3cccc(F)c3)n2n1)Nc1ccc2c(c1)OCO2 | -0.0335 | -0.3285 | -0.0662
43 | Cl.Clc1cc(Br)ccc1-c1ccc(CNCC2CCNCC2)o1 | 0.004 | -0.083 | 0.0133
44 | O=C(O)C(=O)O.Oc1ccccc1CN1CCN(C(c2ccccc2)c2ccccc2)CC1 | -0.1402 | 0.0338 | 0.1461
45 | CCCCCCc1cc2cc(-c3csc(C=Cc4ccccc4)n3)c(=O)oc2cc1O | -0.0646 | -0.0651 | -0.058
46 | O=C(Cc1ccccc1)NC(c1ccc(Cl)cc1)c1c(O)ccc2ccccc12 (configuration not stated) | 0.0198 | 0.0388 | -0.1217
47 | CCOC(=O)C1=CN(C)C=C(C(=O)OCC)C1c1cc(Br)c(OCC)c(OC)c1 | -0.1817 | -0.4757 | 0.2106
48 | O=[N+]([O-])c1ccc(C=NNc2nc3ccccc3[nH]2)cc1 | -0.6981 | -1.0063 | -1.0011
49 | O=C(CCl)NCCOc1ccc(Cl)cc1Cl | -0.0085 | -0.0052 | 0.0391
50 | CCN(CC)CCn1c(=N)n(CC(O)c2ccc(Cl)c(Cl)c2)c2ccccc21.Cl (configuration not stated) | -0.0663 | 0.1274 | 0.0285
51 | CCCCCCC(O)(c1ccc(F)cc1)C(CN1CCOCC1)c1ccccc1.Cl (configuration not stated) | -0.0019 | -0.0435 | -0.1565
52 | Cc1ccnc(NC(c2cccc(OCc3ccccc3)c2)c2ccc3cccnc3c2O)c1 (configuration not stated) | 0 | -0.3469 | 0.0892
53 | O=C(Nc1cccc(-c2nc3ccccc3[nH]2)c1)c1cccc(NC(=O)c2ccco2)c1 | -0.1741 | -0.4658 | -0.0641
54 | CN1CCN(c2ncnc3c2[nH]c2ccc(Cl)cc23)CC1 | 0.0011 | 0.0216 | 0.0494
